Source: patent US11473145B2, “Methods for determining whether a patient suffering from rhabdomyolysis achieves a response with a TLR9 antagonist” (INSERM (INSTITUT NATIONAL DE LA SANTÉ ET DE LA RECHERCHE …, priority 2017, dated 2022)
“Also recorded” adds a separate entry of the source.

How the values were obtained:
Type in all cases: in vivo, human
[1] = tested on: patients with lipin-1 disease; test: Life quality questionnary PESDQL children
From the text: (§1) We treated in 2016 two patients (P1, P2) with lipin-1 disease by hydroxychloroquine sulphate (plaquenil®) and two patients (P3, P4) with dantrolene sodium after obtaining the authorization by the CPP of Paris Descarte University (Comité pour la protection des personnes). Moreover the patient (P5) has been treated for one month by plaquenil® because of their cardiac dysfunction, their fatigability and their sleep disorders. Indeed we think that plaquenil® works well on the two patients treated (P1, P2) and P5's state was considered sufficiently serious to propose it. Plaquenil® was given at a dose of 6 mg/Kg/day into 1 intake (dose usually given in Lupus disease) to P1, P2 and P5.
(§2) Patient 1 corrected their clinical muscle phenotype (Table 1). Physical maximum capacities were measured using six-minute walk (TC6′), Short-Form life quality by using Questionary (SF-36) to assess QOL for parent and for patient, and a self-assessment pain scale (EVA). […] Since then they have resumed treatment.

[2] = tested on: patients with lipin-1 disease; test: Clinical follow-up: rhabdomyolysis episodes, muscle phenotype and muscle pain
From the text: as §1
(§3) Both patients 1 and 2 treated in vivo with Plaquenil® normalized their serum inflammatory profile in one month after the start of treatment (FIG. 1). IL-6 secretion increased in plasma when the two patients stopped their treatment (FIG. 1). The accumulation of mtDNA in plasma of the two patients before treatment decreases under treatment by Plaquenil® (FIG. 2). After Plaquenil® was stopped, the accumulation of mtDNA reappeared, then normalized when treatment was resumed. We observe a correlation between variations of IL-6 and mtDNA accumulation levels, and with the compliance of the treatment.
as §2

[3] = tested on: patients with lipin-1 disease; test: Self-assessment pain scale (EVA)
From the text: as §1, §2

[4] = tested on: patients with lipin-1 disease; test: Six-minute walk test (physical maximum capacities) in patients treated by Plaquenil
From the text: as §1, §2

[5] = tested on: mitochondrial DNA (mtDNA); test: Quantity of mitochondrial DNA (qPCR) in plasma; settings: two patients (P1, P2)
From the text: FIG. 2. Quantity of mitochondrial DNA (qPCR) in plasma of two patients.
as §1, §3

[6] = tested on: patients with lipin-1 disease; test: Life quality questionnary PESDQL parent
From the text: as §1, §2

Creatine kinase (CK) = test: Serum Creatine kinase (CK) level
From the text: as §1, §3, §2

IL-6 = IL-6 secretion in serum measured by ELISA (serum inflammatory profile); settings: for IL-6 concentration in serum: lipin-1 deficient patients
Method: FIG. 1. Inflammatory profile in serum of lipin-1 deficient patients in vivo. Above: IL-6 secretion in serum was measured by ELISA.
as §1, §3

[7] = the two patients, treatment resumed, winter 2016-2017

CCN(CCO)CCCC(C)Nc1ccnc2cc(Cl)ccc12 (stereo not shown) [Plaquenil®, hydroxychloroquine sulphate]
Questionnary (0: very well - 92: very bad) PESDQL children ([1]; patient P1, M 2 of treatment, M 0 before treatment 26): P1: 12
Questionnary (0: very well - 92: very bad) PESDQL children ([1]; patient P1, M 5 of treatment, M 0 26): P1: 11
Questionnary (0: very well - 92: very bad) PESDQL children ([1]; patient P1, M 9, after M 6-M 8 interruption of treatment, M 0 26): P1: 38
Questionnary (0: very well - 92: very bad) PESDQL children ([1]; patient P1, M 16, treatment resumed, M 0 26): P1: 8
Questionnary (0: very well - 92: very bad) PESDQL children ([1]; patient P2, M 2 of treatment, M 0 before treatment 45): P2: 32
Questionnary (0: very well - 92: very bad) PESDQL children ([1]; patient P2, M 5 of treatment, M 0 45): P2: 35
Questionnary (0: very well - 92: very bad) PESDQL children ([1]; patient P2, M 9, after M 6-M 8 interruption of treatment, M 0 45): P2: 47
Questionnary (0: very well - 92: very bad) PESDQL children ([1]; patient P2, M 16, treatment resumed, M 0 45): P2: 30
clinical muscle phenotype ([2]; Patient 1, under treatment): corrected
pain ([2]; patient 2, under treatment): disappeared
walking ability ([2]; patient 2, under treatment): did not improve markedly
new episode of rhabdomyolysis ([2]; patients 1 and 2, during 6 months of treatment): did not have any new episode of rhabdomyolysis
muscle pain [2, 7]: did not have muscle pain
rhabdomyolysis [2, 7]: did not do rhabdomyolysis
rhabdomyolysis after stopping treatment ([2]; the two patients, treatment stopped after 6 months (lack of compliance), hospitalized in intensive care): immediately underwent extensive rhabdomyolysis
Pain Evaluation (EVA) (4: not painful - 40: very painful) ([3]; patient P1, M 2 of treatment, M 0 before treatment 24): P1: 16
Pain Evaluation (EVA) (4: not painful - 40: very painful) ([3]; patient P1, M 5 of treatment, M 0 24): P1: 0
Pain Evaluation (EVA) (4: not painful - 40: very painful) ([3]; patient P1, M 9, after M 6-M 8 interruption of treatment, M 0 24): P1: 4
Pain Evaluation (EVA) (4: not painful - 40: very painful) ([3]; patient P1, M 16, treatment resumed, M 0 24): P1: 0
Pain Evaluation (EVA) (4: not painful - 40: very painful) ([3]; patient P2, M 2 of treatment, M 0 before treatment 18): P2: 12
Pain Evaluation (EVA) (4: not painful - 40: very painful) ([3]; patient P2, M 5 of treatment, M 0 18): P2: 0
Pain Evaluation (EVA) (4: not painful - 40: very painful) ([3]; patient P2, M 9, after M 6-M 8 interruption of treatment, M 0 18): P2: 16
Pain Evaluation (EVA) (4: not painful - 40: very painful) ([3]; patient P2, M 16, treatment resumed, M 0 18): P2: 0
Six-minute walk test (normal 560-740) ([4]; patient P1, M 2 of treatment, 6 mg/Kg/day, M 0 before treatment 450 m): P1: 540 m
Six-minute walk test (normal 560-740) ([4]; patient P1, M 5 of treatment, M 0 450 m): P1: 520 m
Six-minute walk test (normal 560-740) ([4]; patient P1, M 9, after M 6-M 8 interruption of treatment, M 0 450 m): P1: 539 m
Six-minute walk test (normal 560-740) ([4]; patient P1, M 16, treatment resumed, M 0 450 m): P1: 530
Six-minute walk test (normal 560-740) ([4]; patient P2, M 2 of treatment, 6 mg/Kg/day, M 0 before treatment 510 m): P2: 550 m
Six-minute walk test (normal 560-740) ([4]; patient P2, M 5 of treatment, M 0 510 m): P2: 595 m
Six-minute walk test (normal 560-740) ([4]; patient P2, M 9, after M 6-M 8 interruption of treatment, M 0 510 m): P2: 587 m
Six-minute walk test (normal 560-740) ([4]; patient P2, M 16, treatment resumed, M 0 510 m): P2: 590
accumulation of mtDNA in plasma ([5]; after treatment was stopped): reappeared; also recorded: increases
accumulation of mtDNA in plasma ([5]; under treatment versus before treatment): decreases
accumulation of mtDNA in plasma ([5]; when treatment was resumed): normalized; also recorded: decreases again
Questionnary PESDQL parent (0: very well - 92: very bad) ([6]; patient P1, M 2 of treatment, M 0 before treatment 30): P1: 22
Questionnary PESDQL parent (0: very well - 92: very bad) ([6]; patient P1, M 5 of treatment, M 0 30): P1: 12
Questionnary PESDQL parent (0: very well - 92: very bad) ([6]; patient P1, M 9, after M 6-M 8 interruption of treatment, M 0 30): P1: 31
Questionnary PESDQL parent (0: very well - 92: very bad) ([6]; patient P1, M 16, treatment resumed, M 0 30): P1: 20
Questionnary PESDQL parent (0: very well - 92: very bad) ([6]; patient P2, M 2 of treatment, M 0 before treatment 40): P2: 42
Questionnary PESDQL parent (0: very well - 92: very bad) ([6]; patient P2, M 5 of treatment, M 0 40): P2: 33
Questionnary PESDQL parent (0: very well - 92: very bad) ([6]; patient P2, M 9, after M 6-M 8 interruption of treatment, M 0 40): P2: 50
Questionnary PESDQL parent (0: very well - 92: very bad) ([6]; patient P2, M 16, treatment resumed, M 0 40): P2: 35
CK (Creatine kinase (CK); patient 1, rhabdomyolysis after treatment was stopped): 160 000 U/L
CK (Creatine kinase (CK); patient 2, rhabdomyolysis after treatment was stopped): 300 000 U/L
level of serum Creatine kinase (CK) (Creatine kinase (CK); patients 1 and 2, under treatment): decreased
IL-6 concentration in serum (IL-6; under treatment): decreases
IL-6 concentration in serum (IL-6; when the treatment is resumed): decreases again
serum inflammatory profile (IL-6; patients 1 and 2, one month after the start of treatment, 6 mg/Kg/day): normalized
IL-6 secretion (serum/plasma) (IL-6; the two patients, after interruption of treatment): increased
